{"source": "patent US5900434A", "about": "“Method for inhibiting the production of interleukin-1 or tumor necrosis factor-α by administering acanthoic acid” (Korea Institute of Science and Technology, priority 1994, dated 1999)", "key": {"[1]": {"system": "NIH3T3 fibroblasts", "assay": "Inhibition of proliferation of NIH3T3 fibroblasts (3H-thymidine)", "assay_type": "cell-based", "settings": "dialyzate of monocytes/macrophages treated with 10 μg/ml acanthoic acid and silica; 5 days; FIG. 6", "method": "NIH3T3 fibroblast(ATCC CRL 1658) was cultured in RPMI 1640 medium containing 10% FBS under the same conditions as described above. Acanthoic acid was added in various concentrations to 5×10^5 /ml of cells obtained in the above procedures, and the cells were precultured at 37° C. for 1 hour in 5% CO2 incubator. Then, 1 ml each of silica(100 μg/ml) and RPMI 1640 medium containing 2% FBS were added thereto and the cells were cultured under the same conditions as above for 48 hours. The culture supernatant was collected and centrifuged at 1,500 rpm for 10 minutes to remove the cells and silica. The obtained supernatant was dialyzed against PBS and filtered by 0.2 μm filtration syringe, and the filtrate was stored at -20° C. Fibrosis is caused largely by the proliferation of fibroblasts or by the synthesis of collagen. To confirm the effect of acanthoic acid on the proliferation of fibroblasts, human monocytes and macrophages were treated with 10 μg/ml of acanthoic acid and cultured according to the procedure as described in Reference Example 1 (3). The culture was dialyzed against PBS, and 50 μl of the dialyzate was added to the wells of an incubation plate. […] The amount of ^3 H-thymidine incorporated in the cell was determined by employing liquid scintillation counter(FIG. 6). […]"}, "[2]": {"system": "TNF-α production in human monocytes and macrophages", "assay": "Inhibition of TNF-α production in human monocytes and macrophages (L929 cell lytic assay)", "assay_type": "cell-based", "settings": "5 μg/ml or more of acanthoic acid; silica-stimulated; FIG. 3", "method": "The monocytes and macrophages obtained in Reference Example 1 (1) were incubated with 0.1 to 100 μg/ml of acanthoic acid for an hour and treated with 100 μg/ml of silica for 48 hours. The culture was centrifuged to obtain supernatant, which was then dialyzed against PBS. The activity of IL-1 in the dialyzate was determined in accordance with the method of Gery described in Cellular Immunology, 64, 293-303(1981) as follows. Human monocytes and macrophages were treated with acanthoic acid in accordance with the same procedures as in Example 1, and the activity of TNF-α was measured by cell lytic assay in accordance with the method of Aggarwal as described in J. Biol. Chem., 260, 2345(1985). TNF-α dependent L929 fibroblasts(ATCC CCLl) were suspended in RPMI 1640 medium containing 5% FBS and added to the wells of 96-well incubation plate in an amount of 3×10^4 cells/well. The plate was incubated at 37° C. for 2 hours to make the cells adhere to the incubation plate. […] Then, 100 μl of 33% acetic acid was added to each of the wells to release the dye, and then the O.D. of sample obtained from each of the wells was determined by using ELISA reader with 570 nm reading filter and 405 nm reference filter. The amount of released dye was calculated from the O.D. value with reference to that of the internal control group, i.e., rHu TNF-α(Genzyme)."}, "[3]": {"system": "serum glutamic-oxaloacetic transaminase (sGOT)", "assay": "CCl4-induced hepatocirrhosis in rat, serum GOT", "assay_type": "in vivo, Sprague-Dawley rat", "settings": "vs CCl4, DMSO and PBS control; 0.2 ml orally twice a week, 13 weeks; FIG. 10", "source_text": "Hepatocirrhosis(hepatic sclerosis) is characterized by the fibrosis of whole liver, complete disruption of liver parenchyma by fibrous septa, and formation of regenerative nodules. It is derived mostly from a chronic hepatitis or chronic alcoholism, however, the precise causes thereof are unknown. In a hepatocirrhosis patient, the amount of cytokines, e.g., TNF-α, which is involved in inflammation and fibrosis, is in an increased state; and, therefore, the inhibition of hepatocirrhosis by acanthoic acid may be determined by the inhibitory activity to TNF-α. To induce the experimental hepatocirrhosis in accordance with the method of Nakataukasa, H., et al. as described in J. Clin. Invest., 85, 1833-1843(1990), 1.0 ml/100 g of body weight of CCl4 solution(50% CCl4 +50% corn oil) was injected intraperitoneally to 4 week old male Sprague-Dawley rats twice a week, and 0.2 ml each of methanol extract of A. koreanum Nakai and acanthoic acid was administered orally at the time of the injection of CCl4 twice a week. After 13 weeks from the start of the test, each of the rats was anesthetized with ether and the blood samples were obtained from the heart to determine serum glutamic-oxaloacetic transaminase(sGOT) value and serum glutamic-pyruvic transaminase(sGPT) value(FIG. 10)."}}}
{"smiles": "C=C[C@@]1(C)CC=C2C(CCC3[C@](C)(C(=O)O)CCC[C@@]23C)C1", "note": "(single isomer, unassigned; (-)) [acanthoic acid, (-)-pimara-9(11),15-diene-19-oic acid]", "values": [{"measurement": "proliferation of fibroblasts", "setting": "[1]", "result": "inhibited significantly"}, {"measurement": "inhibition of production of TNF-α", "setting": "[2]", "result": "at least 90%"}, {"measurement": "decrease of sGOT value", "setting": "[3]", "result": 30, "unit": "%"}]}
